Assay results taken from patent publication US20040023924A1, “Use of xyloglucan polymers and oligomers, and derivative compounds, as phytosanitary products and biofertilizers” (priority 2000, published 2004).

What was measured:
[1] = system: Rubus fruticosus protoplasts; test: Elicitation of an oxidative burst: generation of superoxide anion (Cyt c assay); assay type: cell-based; conditions: 25° C.; for Cytochrome c reduction response (100% = non-elicited controls): at 10 nM; for Optimal response, cytochrome c reduction (100% = non-elicited controls): at the optimal dose
Procedure: Preparation of Rubus fruticosus protoplasts according to Vargas-Rechia (1998). The protoplast yield is of the order of 70 to 85% of the initial number of cells used; the viability of the protoplasts, of the order of 90 to 95%, was checked using Evans blue indicator.
The Cyt c assay was carried out according to Nakanishi et al. (1991) in the following manner. Incubation at 25° C. of 4.10^6 protoplasts in the presence of Cyt c (100 μM), and of the elicitor (0 to 100 μM): 2′-fucosyl lactose (compound A), XXFGol (compound B).
Evaluation of the experimental data: The reaction rate is given by (AF340 min^−1). At least three kinetic curves are plotted per experimental condition. One point on the graph corresponds to the slope of the regression curve deduced from at least 6 kinetic curves.
The elicitation response is evaluated according to the cytochrome c reduction measured by the absorbance variation at […]; the 100% reference value corresponds to the reduction count of the controls (non-elicited protoplast suspensions).

[2] = system: 1,3 β-D-glucanase (EC 3.2.1.39); test: Induction of a 1,3 β-D-glucanase response in elicited cells; assay type: cell-based, Acer pseudoplatanus L.; conditions: 50 nM elicitor; for 1,3 β-D-glucanase response R: 42 hours; for 1,3 β-D-glucanase early response R: after 20 minutes
Procedure: (§1) Vegetable material: Acer pseudoplatanus L Cells in Suspension
(§2) Test: 2.10^6 Acer pseudoplatanus L. cells were elicited under circular stirring (80 rpm), in 25 ml of culture medium (without 2,4-D) by 50 nM of 2′-fucosyl lactose (compound A) or 50 nM of methyl α-L-Fuc (1→2) β-D-Gal (1→2) β-D-Xyl trisaccharide (compound B)(synthesized according to Lopez et al., 1994) or for a variable time (0 to 42 hours) in the presence or not in the presence of an effector: cycloheximide (1 μM), okadaic acid (5 nM), staurosporine (500 nM), or boroglycine (500 nM). The elicitation experiment is stopped by putting the cells in ice. The cells recovered after decantation and taken up in approximately 1 ml of elicitation buffer are the subject of a specific protein extraction.
(§3) D-glycosylhydrolase extraction. The enzyme extracts are prepared from elicited or non-elicited cells. The cells are homogenized at 0° C. in Tris-HCl buffer (50 mM pH 7.2) containing 1 M of NaCl with a Vibracell™ Bioblock sonicator, maximum power, for 3 times 1 minute. The homogenates are centrifuged at 4° C. (12000 g, 15 minutes) then dialysed and concentrated on Ultrafree™ Millipore ultrafiltration units (cut-off threshold 10 kDa). The retentates, taken up in distilled water, are crude extracts.
1,3 β-D-glucanase activity assay. This is based on colorimetric assay (ferricyanide test of Kidby and Davidson (1973) of the substrate reducing units (laminarin or laminarin hexamer) released during the hydrolysis. The reaction medium contains the enzyme extract (1 μg of proteins), the substrate (5 μM of reduced laminarin hexamer) in 100 μl of sodium acetate buffer (0.1 M), pH 5.0); the enzymatic reaction at 40° C. develops over a variable time (1 to 3 hours).
(§4) Evaluation of the experimental data. At least 2 kinetics were carried out per sample, and per set of experiments. The reaction rate (ΔA410 minutes^−1 for example) is obtained by linear regression from 4 kinetic curves. The results are expressed by the ratio R (enzymatic activity in elicited cells/enzymatic activity in non-elicited control cells).

[3] = system: 1,4 β-D-glucanase (EC 3.2.1.4); test: Induction of a 1,4 β-D-glucanase response in elicited cells; assay type: cell-based, Acer pseudoplatanus L.; conditions: 50 nM elicitor; for 1,4 β-D-glucanase response R: 42 hours; for 1,4 β-D-glucanase early response R: after 20 minutes
Procedure: as §1, §2, §3
1,4 β-D-glucanase activity assay. This is based on colorimetric assay (ferricyanide test of Kidby and Davidson (1973) of the cellopentaose substrate reducing units released during the hydrolysis. The reaction medium contains the enzyme extract (1 μg of proteins), reduced cellopentaose (4 μM) in 100 μl of sodium acetate buffer (0.1 M), pH 5.0); the enzymatic reaction at 40° C. develops over a variable time (1 to 3 hours).
as §4

papain (EC 3.4.22.2) = test: Induction of a thiol-protease (papain) inhibitor in elicited cells; assay type: cell-based, Acer pseudoplatanus L.; conditions: 50 nM elicitor; for Papain inhibitor potential, early reaction: after 30 minutes; for Papain inhibitor potential, late reaction: after 42 hours
Procedure: Vegetable Material: Acer pseudoplatanus L. Cells in Suspension
Test: 2.10^6 cells of Acer pseudoplatanus L. were elicited by 50 nM of 2′-fucosyl lactose (compound A) or by 50 nM of methyl α-L-Fuc (1→2)β-D-Gal (1→2)β-D-Xyl trisaccharide (compound B) (synthesized according to Lopez et al., 1994) for 30 minutes or for 42 hours. Inhibitors of protease (IP) were prepared according to the protocol of Walker-Simmons (1977) starting from elicited or non-elicited cells. It was verified that the viability of the cells was maintained at more than 85% for the whole duration of the experiment.
Papain activity assay: the reaction medium contains an aliquot of IP extract (equivalent to 1 or 2 μg of proteins) in sodium phosphate citrate buffer (0.1M) pH 6 enriched with cysteine-HCl (5 mM), papain (EC 3.4.22.2) (0.48 units), p-nitroanilide N-α-benzoyl-D-L-arginine (BAPNA) (0.27 mM). The activity assay is based on the absorbance measurement at 410 nm. The reaction rate is given by ΔA410 min^−1.
Evaluation of the experimental data: for a given sample, the activity of an IP inhibitor isolated from this sample is estimated by developing the protease kinetics (recording at 410 nm for IO minutes in the presence or not in the presence of a variable quantity of inhibitor). The experimental conditions adopted (incubation time, substrate, enzyme and IP extract concentrations) are those which lead to linear and reproducible kinetics. The initial reaction rate is the slope α(A410 minutes^−1) of a curve A410=f(t). For a given sample, at least three curves are plotted and the initial rate is deduced by linear regression. The protease activity modulation capacity is expressed as a % of the control activity (protease activity without IP inhibitor).
The elicitation response is evaluated according to the papain inhibition measured in the presence of a protease inhibitor prepared from cells elicited by 2′ fucosyl lactose (2A) or by methyl α-L-Fuc (12) β-D-Gal (12) β-D-Xyl trisaccharide (2B); the results are expressed as a % of the control activity (papain activity in the non-elicited cells measured without inhibitor).

[4] = system: endochitinase (EC 3.2.1.14); test: Induction of an endochitinase response in elicited cells; assay type: cell-based, Acer pseudoplatanus L.; conditions: 50 nM elicitor; for Endochitinase response: 42 hours; for Endochitinase early response R: after approximately 25 minutes
Procedure: as §1, §2, §3
Endochitinase activity assay. This is based on the released reducing sugar assay according to Somogyi (1952). The reaction medium contains the enzyme extract (1 μg of proteins), the substrate (25 μg of chitin) in 100 μl of sodium acetate buffer (0.1 M), pH 5.0; the enzymatic reaction at 40° C. develops over a variable time (1 to 5 hours).
as §4

| Structure (SMILES) | Elicitor dose of optimal response, cytochrome c reduction (superoxide anion) [1] [nM] | Cytochrome c reduction response (100% = non-elicited controls) [1] [%] | Optimal response, cytochrome c reduction (100% = non-elicited controls) [1] [%] | 1,3 β-D-glucanase response R [2] | 1,3 β-D-glucanase early response R [2] | 1,4 β-D-glucanase response R [3] | 1,4 β-D-glucanase early response R [3] | Papain inhibitor potential, early reaction (papain (EC 3.4.22.2)) | Papain inhibitor potential, late reaction (papain (EC 3.4.22.2)) | Endochitinase response [4] | Endochitinase early response R [4] |
| --- | --- | --- | --- | --- | --- | --- | --- | --- | --- | --- | --- |
| C[C@@H]1O[C@@H](O[C@H]2[C@H](O[C@H]3[C@H](O)[C@@H](O)[C@H](O)O[C@@H]3CO)O[C@H](CO)[C@H](O)[C@@H]2O)[C@@H](O)[C@H](O)[C@@H]1O [compound A, α-L-Fuc(1→2)β-D-Gal(1→4)β-D-Glc] | 50 | 187 | 200 | ~12 | ~3 | ~4 | ~5 | same papain inhibitor potential | lower intensity | no enzymatic activation was detected | ~6 |
| CO[C@@H]1OC[C@@H](O)[C@H](O)[C@H]1O[C@@H]1O[C@H](CO)[C@H](O)[C@H](O)[C@H]1O[C@@H]1O[C@@H](C)[C@@H](O)[C@@H](O)[C@@H]1O [compound B, methyl α-L-Fuc (1→2)β-D-Gal (1→2)β-D-Xyl] | 15 | 160 | 159 | ~12 | ~3 | ~4 | ~5 | same papain inhibitor potential | lower intensity | no enzymatic activation was detected | ~6 |
